Several values for one entry are separate records, joined by “and”; a condition that tells them apart may be missing. Equal values may be shown once. Where a name gives a salt, the structure may show the parent alone. Read-outs that look alike come from different tables or passages of the source.
What was measured:
[1] = type: physicochemical; details: 24 h; for S: solubility / pH: room temperature; for S: solubility: calculated as free form; for FC: crystal transfer: XRPD of solid; for pH: pH of filtrate
[2] = for Carr index: (tapped density - bulk density) / tapped density; for Average angle of repose (°) / Average bulk density / Average tapped density: mean of three tests
Experimental: A method for testing the density and the tapped density included: (1) a certain mass of to-be-assessed sample was placed into a 5 mL measuring cylinder, and the volume at this moment was recorded. The bulk density was calculated by dividing the mass of the sample by the volume at this moment. (2) The measuring cylinder was slightly tapped 200 times, the final volume was recorded, and the tapped density was calculated by dividing the mass of the sample by the final volume. (3) Three parallel tests were conducted. A method for testing the angle of repose included: (1) a funnel was fixed vertically to a bottom surface, and the material was slowly placed into the funnel. (2) A well-proportioned cone of the material was formed on the bottom surface. The height and bottom surface diameter of the cone were measured. (3) Three parallel tests were conducted.
Angle of repose α = […], where h is the cone height, and D is the cone diameter.

[3] = DVS
Experimental: DVS isotherms were collected on an SMS (Surface Measurement Systems) DVS Intrinsic. Relative humidity at 25°C was calibrated using the deliquescence points of LiCl, Mg(NO3)2, and KCl. Table 9 DVS testing parameters

[4] = type: physicochemical; details: 37°C; for S: solubility: calculated as free form; for pH: pH of filtrate
[5] = Pharmacokinetics of hydrochloride crystal form A in Beagle dogs (intragastric); type: in vivo; details: dog
Experimental: Three 31-month-old male Beagle dogs used in this experiment were purchased from Beijing Marshall Bioresources Co., Ltd., with the animal qualification certificate No. 110318201100056783.
In this experiment, three male Beagle dogs were randomly selected for administration. All the animals were fasted for at least 12 h before administration and were fed again 4 h after administration. […] Table 28 Administration methods for animals
The blood samples from the animals were collected through the jugular vein, with a blood sample volume of 0.5 mL/time. All collected whole blood samples were placed in centrifuge tubes containing EDTA-K2, and the centrifuge tubes were turned upside down to allow the anticoagulant and blood to be fully mixed. All the blood samples were placed on wet ice before centrifugation and centrifuged at 1500 g for 10 min to separate plasma. The plasma samples were transferred to sample tubes and stored at -40°C to […] until analysis.
The drug concentration in the plasma of each Beagle dog was detected by an LC-MS/MS method. […]

[6] = Solid-state stability (XRPD, UPLC purity); details: for Crystal form Transform: XRPD; for Purity (area%): starting purity 99.82 (hydrochloride), 99.72 (free); for Area (%): UPLC main peak (#Peak 1, RRT 1.00)
[7] = Mechanical stability (grinding, tableting at 350 MPa, XRPD); type: physicochemical
[8] = listed as hydrochloride crystal form A
[9] = single values of three parallel tests

SMILES: CC[S@@](=N)(=O)C[C@H]1CC[C@H](N(C)c2ncnc3[nH]ccc23)CC1 [Hydrochloride crystal form A]
- S: solubility ([1]; Buffer (pH=2.0)): >9500 µg/mL
- S: solubility ([1]; Buffer (pH=7.4)): 2500 µg/mL
- FC: crystal transfer ([1]; Buffer (pH=7.4)): Yes
- FC: crystal transfer ([1]; Buffer (pH=7.4), listed as hydrochloride crystal form A): transformed into the free crystal form A
- pH ([1]; Buffer (pH=2.0)): 3.5
- pH ([1]; Buffer (pH=4.5)): 4.4
- pH ([1]; Buffer (pH=7.4)): 6.2
- Carr index [2]: 41%
- Carr index [2, 8]: 41%
- Average angle of repose (°) [2]: 33.9 °
- Average bulk density [2]: 0.14 g/mL
- Average tapped density [2]: 0.24 g/mL
- Average angle of repose (°) [2, 8]: 33.9 °
- Average bulk density [2, 8]: 0.14 g/mL
- Average tapped density [2, 8]: 0.24 g/mL
- Angle of repose (°) [2, 9]: 33.7 ° and 37.2 ° and 30.8 °
- Bulk density [2, 9]: 0.14 g/mL and 0.13 g/mL
- Tapped density ([2]; tapped 200 times, single values of three parallel tests): 0.23 g/mL and 0.25 g/mL
- Hygroscopic weight gain (wt%) at 25°C/80% RH [3]: 0.47 wt%
- Hygroscopic weight gain (wt%) at 25°C/80% RH [3, 8]: 0.47 wt%
- S: solubility ([4]; FaSSIF, 1 h, 60 min): >9500 µg/mL
- S: solubility ([4]; FaSSIF, 2 h, 120 min): >9700 µg/mL
- S: solubility ([4]; FaSSIF, 4 h, 240 min): >9800 µg/mL
- S: solubility ([4]; FaSSIF, 24 h, 1440 min): >9600 µg/mL
- S: solubility ([4]; FeSSIF, 1 h, 60 min): >10400 µg/mL
- S: solubility ([4]; FeSSIF, 2 h, 120 min): >10200 µg/mL
- S: solubility ([4]; FeSSIF, 4 h, 240 min): >10200 µg/mL
- S: solubility ([4]; FeSSIF, 24 h, 1440 min): >10000 µg/mL
- S: solubility ([4]; H2O, 1 h, 60 min): >9300 µg/mL
- S: solubility ([4]; H2O, 4 h, 240 min): >9500 µg/mL
- S: solubility ([4]; SGF, 1 h, 60 min): >9800 µg/mL
- S: solubility ([4]; SGF, 2 h, 120 min): >9900 µg/mL
- S: solubility ([4]; SGF, 4 h, 240 min): >9800 µg/mL
- S: solubility ([4]; SGF, 24 h, 1440 min): >10300 µg/mL
- pH ([4]; FaSSIF, 1 h): 5.0
- pH ([4]; FaSSIF, 2 h): 5.1
- pH ([4]; FaSSIF, 4 h): 5.1
- pH ([4]; FaSSIF, 24 h): 5.0
- pH ([4]; FeSSIF, 1 h): 4.9
- pH ([4]; FeSSIF, 2 h): 4.9
- pH ([4]; FeSSIF, 4 h): 4.9
- pH ([4]; FeSSIF, 24 h): 4.8
- pH ([4]; H2O, 1 h): 4.0
- pH ([4]; H2O, 2 h): 4.0
- pH ([4]; H2O, 4 h): 4.0
- pH ([4]; H2O, 24 h): 4.0
- pH ([4]; SGF, 1 h): 2.9
- pH ([4]; SGF, 2 h): 3.0
- pH ([4]; SGF, 4 h): 3.0
- pH ([4]; SGF, 24 h): 2.9
- clinical observation ([5]; in vivo): no obvious abnormalities were found
- k el ([5]; plasma, po, 6 mg/kg): 5.39e-05 s⁻¹
- Crystal form Transform ([6]; 25°C/60% RH/4 weeks, open): No
- Purity (area%) ([6]; 25°C/60% RH/4 weeks, open): 99.88 area%
- Crystal form Transform ([6]; 40°C/75% RH/4 weeks, open): No
- Purity (area%) ([6]; 40°C/75% RH/4 weeks, open): 99.88 area%
- Crystal form Transform ([6]; 80°C/1 d, closed): No
- Area (%) ([6]; 25°C/60% RH/4 weeks): 99.88%
- Area (%) ([6]; 40°C/75% RH/4 weeks): 99.88%
- Area (%) ([6]; 80°C/1 d): 99.87%
- Results of mechanical stability After grinding ([7]; manual grinding): The crystal form remains unchanged
- Results of mechanical stability After tableting ([7]; tablet press, 350 MPa): The crystal form remains unchanged, but the crystallinity is slightly reduced

— patent EP4660196A1, “CRYSTAL FORM OF COMPOUND, PREPARATION METHOD THEREFOR AND USE THEREOF” (Felicamed Biotechnology Co., Ltd., priority 2023, dated 2024)
